Series [1] can be described thus: DPPH (diphenylpicrylhydrazyl) radical-scavenging test. The settings on record: 100 μM DPPH in ethanol, 37° C., 30 minutes, 515 nm. The protocol:
Harmful radicals-scavenging activity of the compounds of Examples 1 through 6 were compared with those of conventional anti-oxidants by using DPPH(diphenylpicrylhydrazyl) radical-scavenging test as follows:
DPPH was dissolved into ethanol to a concentration of 100 μM. A series of dilutions of compounds of Examples 1 through 6, vitamin C, vitamin E or hydroquinone were prepared.
Ethanol and water were used to dilute the test compounds. As a control, 1:1 mixture of ethanol and water was used. The series of dilutions of each test compound were mixed with 1,900 μl of DPPH solution and the dilution solvent was added to 2.0 ml. The resulting mixture was reacted in a 37° C. incubator for 30 minutes. The absorbance was measured at 515 nm. The radical-scavenging activities of the compounds of Examples 1 through 6 and conventional anti-oxidants were calculated by employing the following equation: [formula]
From the radical scavenging activity(%) by a series of dilutions of test compounds, IC50, i.e., a concentration of test compound which scavenge the radical, DPPH by 50% was calculated for each test compound.
A general note: Loss of DPPH colour is used to gauge radical scavenging.

The next series relates to human skin. Briefly: human body patch test (skin safety). The settings on record: for number of positive subject/the number of total subjects, 48 hours later / number of positive subject/the number of total subjects, 96 hours later: 0.2 wt % in cream, 20 μl finn chamber on brachium; for safety to human skin (in words): patch test conclusion. It is filed as in vivo. On the procedure:
In order to examine the safety of the compounds of Examples 1 through 6, the human body patch test was carried out as follows:
The brachium of thirty(30) healthy volunteers (15 females and 15 males) was thoroughly washed with 70% ethanol and applied with a finn chamber containing 20 μl of a conventional creamy preparation incorporating 0.2 wt % of one of the compound of Examples 1 to 6. The finn chamber was thoroughly bonded to the brachium using an adhesive tape. 48 hours later, the tape and chamber were removed, and the adherent site of the arm was wiped with a gauze to remove the remaining preparation and observed for redness(erythma), swelling, and papuol. 48 hours later, the site was examined again.
The results are shown in terms of the number of positive subject/the number of total subjects.

The test system of series [2] is tyrosinase. Description: Tyrosinase-inhibiting activity. Format: biochemical, mushroom. The settings on record: for IC50: mushroom tyrosinase, tyrosine substrate, pH 6.8, 37° C., 10 minutes, absorbance at 475 nm. On the procedure:
As an enzyme, the tyrosinase, which was extracted from mushroom and produced by SIGMA was purchased. Tyrosine, a substrate was dissolved into distilled water to a concentration of 0.3 mg/ml and each 1.0 ml of the solution was placed into a test tube. […] Ethanol and water were used to dilute the test compounds. As a control, 0.9 ml of 1:1 mixture of ethanol and water was used. […] The test tube was quickly cooled in an ice water bath to stop the reaction, and the absorbance was measured at 475 nm. […] From the inhibitions(%) of tyrosinase by a series of dilutions of test compounds, IC50, i.e., a concentration of test compound which inhibit the tyrosinase by 50% was calculated for each test compound.

The test system of series [3] is tyrosinase. Conditions: background, known activity; cited from earlier work.

The IC50 is the concentration at which inhibition is half-maximal. In the case of `O=C(OCc1cc(=O)c(O)co1)c1ccc(O)c(O)c1` [Example 4, 2-(3,4-dihydroxybenzoyl)oxymethyl-5-hydroxy-4H-pyran-4-one], the IC50 in series [1] came to 11.5 µM. In the series on human skin, the “number of positive subject/the number of total subjects, 48 hours later” value is given as 1/30; the “number of positive subject/the number of total subjects, 96 hours later” value is on record as 0/30; the “safety to human skin (in words)” value was “safe to the human skin”. Moreover, in the series on tyrosinase [2], the “tyrosinase-inhibiting activity (in words)” value is “strongest tyrosinase-inhibiting activity” and the IC50 turned out to be 4 µM.
In series [1], `O=C(OCc1cc(=O)c(O)co1)c1ccc(O)cc1O` [Example 6, 2-(2,4-dihydroxybenzoyl)oxymethyl-5-hydroxy-4H-pyran-4-one] registered an IC50 of 15 µM. In the series on human skin, the “number of positive subject/the number of total subjects, 48 hours later” value is 0/30; the “number of positive subject/the number of total subjects, 96 hours later” value is on record as 0/30; the “safety to human skin (in words)” value is reported as “safe to the human skin”. For the same molecule, in the series with tyrosinase [2], the “tyrosinase-inhibiting activity (in words)” value is recorded as “strongest tyrosinase-inhibiting activity” and half-maximal inhibition (IC50) was put at 6 µM.
The molecule `O=C(OCc1cc(=O)c(O)co1)c1cccc(O)c1` [Example 3, 2-(3-hydroxybenzoyl)oxymethyl-5-hydroxy-4H-pyran-4-one] displayed an IC50 in series [1] of 2030 µM. In addition, in the series on human skin, the “number of positive subject/the number of total subjects, 48 hours later” value is 1/30; the “number of positive subject/the number of total subjects, 96 hours later” value is on record as 1/30; the “safety to human skin (in words)” value was “considered to be safe”. In addition, the “skin response after 96 hours (in words)” value with human skin (preparation with 0.2 wt % of compound, 96 hours) is recorded as “only one(1) among 30 subjects show a weak positive response”. This molecule gave an IC50 against tyrosinase [2] of 15 µM.
The molecule `O=C1O[C@H]([C@@H](O)CO)C(O)=C1O` [Vitamin C, reference compound] gave an IC50 in series [1] of 29.2 µM.
Regarding `O=C(OCc1cc(=O)c(O)co1)c1ccc(O)cc1` [Example 1, 2-(4-hydroxybenzoyl)oxymethyl-5-hydroxy-4H-pyran-4-one], the IC50 in series [1] came to 1910 µM. In the series on human skin, the “number of positive subject/the number of total subjects, 48 hours later” value was 0/30; the “number of positive subject/the number of total subjects, 96 hours later” value is 0/30; the “safety to human skin (in words)” value is reported as “safe to the human skin”. The molecule further had an IC50 at tyrosinase [2] of 10 µM.
For the molecule “tocopherol [Vitamin E, reference compound]”, inhibition in series [1] was half-maximal at 34.8 µM (IC50).
Consider `O=c1cc(CO)occ1O` [Kojic acid], for which, in the series on tyrosinase [3], the “tyrosinase inhibition (in words, prior art)” value is reported as “strongly inhibiting the action of tyrosinase”.
For `Oc1ccc(O)cc1` [Hydroquinone, reference compound], in series [1], 25.4 µM corresponded to half-maximal inhibition (IC50).
Take `O=C(OCc1cc(=O)c(O)co1)c1ccccc1O` [Example 2, 2-(2-hydroxybenzoyl)oxymethyl-5-hydroxy-4H-pyran-4-one]: the IC50 in series [1] was found to be 2230 µM. Also, in the series with human skin, the “number of positive subject/the number of total subjects, 48 hours later” value is 2/30; the “number of positive subject/the number of total subjects, 96 hours later” value is on record as 0/30; the “safety to human skin (in words)” value is “safe to the human skin”. 15 µM corresponded to half-maximal inhibition at tyrosinase [2] (IC50).
Turning to `O=C(OCc1cc(=O)c(O)co1)c1cccc(O)c1O` [Example 5, 2-(2,3-dihydroxybenzoyl)oxymethyl-5-hydroxy-4H-pyran-4-one], the IC50 in series [1] came to 11.3 µM. In addition, in the series on human skin, the “number of positive subject/the number of total subjects, 48 hours later” value is given as 1/30; the “number of positive subject/the number of total subjects, 96 hours later” value is given as 0/30; the “safety to human skin (in words)” value was “safe to the human skin”. At tyrosinase [2], this molecule yielded a half-inhibitory concentration (IC50) of 14 µM.

The values above are taken from patent US5523421A (Pacific Corporation, priority 1993, dated 1996).
